In PMC7179128, “Characterizations and Assays of α-Glucosidase Inhibition Activity on Gallic Acid Cocrystals: Can the Cocrystals be Defined as a New Chemical Entity During Binding with the α-Glucosidase?” (Molecules, 2020):

Columns and labels:
α-glucosidase = α-glucosidase (Saccharomyces cerevisiae, UniProt P53341); assay: α-glucosidase inhibitory activity in vitro (pNPG substrate, absorbance at 405 nm); assay type: biochemical; settings: in vitro inhibition rate, Figure 4
Method: Briefly, accurately weighed α-glucosidase was dissolved in 0.1 mol∙L^−1 potassium phosphate buffer (pH 6.8) to produce 50 μL of enzyme solution with a concentration of 1.0 U∙mL^−1. Fifty microliters of enzyme solution and 50 μL of test sample were mixed in a well of a microtiter plate to incubate for 10 min at 37 °C. Three millimoles of pNPG in the same buffer was used as a substrate solution. After pre-incubation at 37 °C for 10 min, 50 μL of pNPG solution was added into above enzyme solution. The enzymatic reaction was allowed to proceed at 37 °C for 10 min, following the measurement of 4-nitrophenol absorbance at 405 nm on a microplate spectrophotometer. The solution without α-glucosidase was used as a blank. The solution without the test sample was used as a test. The solution without the test sample and α-glucosidase was used as a control.
IC50 values were obtained as the mean of three independent experiments, which were constructed by testing a series of concentrations (i.e., three curves were obtained, each in triplicate).

[1] = Powder dissolution test in 0.1 mol∙L^−1 HCl; assay type: physicochemical; settings: after 25 min, 37 ± 0.5 °C
Method: Co., Ltd., Shanghai, China) at 25 °C in five different solutions (pH 1, 2, 4, 8 and water, respectively) using the shake-flask method. Excess sample was added in the solvent and the suspension was shaken for 72 h in an air bath. The suspension was filtered through a 0.45 μm Millipore filter. Then, the GA concentration was determined using HPLC (Agilent 1200, Santa Clara, CA, USA). […] Approximately 50 mg of the sample (here single GA and cocrystals equivalent to 50 mg of GA) were placed in 900 mL dissolution media. Four milliliters of the suspensions were taken at appropriate intervals and immediately replaced by 4 mL of fresh dissolution media. All samples were filtered through a 0.45 μm Millipore filter. The concentration of GA in all samples were determined by HPLC. All tests were repeated thrice. Bioavailability in vivo was assayed using SD rats. […] The intragastric suspensions were prepared by suspending GA or the cocrystal (equivalent to same amount of GA) in 5% sodium carboxymethyl cellulose. Thereafter, the intragastric suspensions were orally administered to the rats at a single dose of 50 mg∙kg^-1. An approximately 500 μL blood sample was obtained from the eye canthus and collected into 1.5 mL heparinized plastic centrifuge tubes at the set time point after intragastric administration. […] The pharmacokinetic parameters were calculated using DAS 2.0 software.

[2] = Oral bioavailability / pharmacokinetics in SD rats; assay type: in vivo; settings: rat, single dose 50 mg∙kg^−1 (GA equivalent), n = 6, GA in plasma
Method: Co., Ltd., Shanghai, China) at 25 °C in five different solutions (pH 1, 2, 4, 8 and water, respectively) using the shake-flask method. Excess sample was added in the solvent and the suspension was shaken for 72 h in an air bath. The suspension was filtered through a 0.45 μm Millipore filter. Then, the GA concentration was determined using HPLC (Agilent 1200, Santa Clara, CA, USA). […] Approximately 50 mg of the sample (here single GA and cocrystals equivalent to 50 mg of GA) were placed in 900 mL dissolution media. Four milliliters of the suspensions were taken at appropriate intervals and immediately replaced by 4 mL of fresh dissolution media. All samples were filtered through a 0.45 μm Millipore filter. The concentration of GA in all samples were determined by HPLC. All tests were repeated thrice. Bioavailability in vivo was assayed using SD rats. […] The intragastric suspensions were prepared by suspending GA or the cocrystal (equivalent to same amount of GA) in 5% sodium carboxymethyl cellulose. Thereafter, the intragastric suspensions were orally administered to the rats at a single dose of 50 mg∙kg^-1. An approximately 500 μL blood sample was obtained from the eye canthus and collected into 1.5 mL heparinized plastic centrifuge tubes at the set time point after intragastric administration. GA was extracted from plasma by protein precipitation. One hundred microliters of plasma was mixed with internal standard solution (20 μL) in the centrifuge tube; then, the solution of acetonitrile formic acid (2%, v/v) was added to precipitate the protein. […] Then, the supernatant was taken for determining the concentration of GA by the LC-MS/MS (MS:3200 QTRAP, AB SCIEX, MA, USA, LC: Agilent1200, Santa Clara, CA, USA) method. The blood concentration-time curve was drawn by taking blood sampling time as the horizontal coordinate and GA concentration as the vertical coordinate. The pharmacokinetic parameters were calculated using DAS 2.0 software.

α-glucosidase, sequence (P53341 whole entry): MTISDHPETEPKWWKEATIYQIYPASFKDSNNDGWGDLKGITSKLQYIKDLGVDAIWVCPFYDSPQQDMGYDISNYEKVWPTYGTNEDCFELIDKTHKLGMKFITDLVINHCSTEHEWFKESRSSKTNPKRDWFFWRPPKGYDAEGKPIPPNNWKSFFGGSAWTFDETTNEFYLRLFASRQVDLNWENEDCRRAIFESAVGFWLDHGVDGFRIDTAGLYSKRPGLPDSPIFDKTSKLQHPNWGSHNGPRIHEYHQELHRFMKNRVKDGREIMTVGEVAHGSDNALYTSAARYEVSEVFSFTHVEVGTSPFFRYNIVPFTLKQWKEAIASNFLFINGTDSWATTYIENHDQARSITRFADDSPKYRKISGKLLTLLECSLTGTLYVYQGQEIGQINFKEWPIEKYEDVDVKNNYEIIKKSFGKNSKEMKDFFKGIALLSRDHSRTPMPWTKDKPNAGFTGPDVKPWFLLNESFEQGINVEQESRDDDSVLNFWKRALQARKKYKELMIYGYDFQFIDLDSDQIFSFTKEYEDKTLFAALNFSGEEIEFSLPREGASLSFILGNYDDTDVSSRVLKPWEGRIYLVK

O=C1CCC(=O)N1 [succinimide]
α-glucosidase inhibitory activity (in words) (α-glucosidase): no inhibitory activity

O=C(O)c1cc(O)c(O)c(O)c1 [GA, gallic acid]
cumulative dissolution [1]: 80%
AUC(0-inf) [2]: 4200 ± 1200 ng·h/mL
AUC(0-t) [2]: 4100 ± 1200 ng·h/mL
Cmax [2]: 1500 ± 500 ng/mL
